Molecules are shown by their SMILES.

The test system of test [1] is Platelet-activating factor receptor (Oryctolagus cuniculus). Briefly: Percent inhibition of [3H]PAF to platelet-activating factor (PAF) receptor from rabbit platelet membranes at. As to conditions: concentration not given here.
The species entered for test [2] is Oryctolagus cuniculus. Briefly: PAF antagonism was determined by rabbit platelet inhibition and neurophil aggregation and degranulation at 0.1 to 1 uM concentration. The format is functional.

On to `CCCC1=C[C@]2(OC)C(=CC1=O)O[C@H](c1ccc(OC)c(OC)c1)[C@H]2C`, for which the inhibition (usually the percentage by which the read-out fell short of the control) in test [1] came out at 61%. Turning to `C=CCC1=C[C@@]2(OC)C(=CC1=O)O[C@H](c1ccc(OC)c(OC)c1)[C@H]2C` (stereo in doubt) [KADSURENONE], the Ki (commonly the equilibrium dissociation constant of an inhibitor or competing ligand from its target) in test [2] amounted to 58 nM.
